These compounds were tested on Na^+-dependent Cl^−/HCO3^− exchanger (NCBE) (assay: Inhibition of the Na+-dependent Cl−/HCO3− exchanger (NCBE) in human endothelial cells (pHi recovery, BCECF fluorescence, FLIPR)). Settings: 10 μM.
Format: cell-based
How it was run: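 Fluorescence rise (FLIPR, 2 min, 35 °C) tracked pHi recovery in acid-loaded, BCECF-loaded ECV-304 cells after adding Na+- and HCO3−-containing buffer with 50 μM HOE 642 and graded compound doses. Inhibition was calculated against full-recovery and bicarbonate-free no-recovery controls.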
For N#CNS(=O)(=O)c1ccccc1-c1ccc(CN(Cc2nc3ccccc3[nH]2)C(=O)Cc2ccsc2)cc1 [Example 232], the “Residual activity % of the NCBE at 10 μM” value was 62.6%. With Cc1cccc(CN(Cc2ccc(-c3ccccc3S(=O)(=O)NC#N)cc2)C(=O)CCOc2ccccc2)c1 [Example 341] the “Residual activity % of the NCBE at 10 μM” value was 44.6%. In the case of N#CNS(=O)(=O)c1ccccc1-c1ccc(CN(CCCc2ccccc2)C(=O)Cc2csc3ccccc23)cc1 [Example 210], the “Residual activity % of the NCBE at 10 μM” value is reported as 66.2%. CC(C)(C)OC(=O)C(c1ccccc1)N(Cc1ccc(-c2ccccc2S(=O)(=O)NC#N)cc1)C(=O)Cc1ccccc1Br (centres unmarked) [Example 275] was tested, and the “Residual activity % of the NCBE at 10 μM” value was 54.6%. For C#CCN(Cc1ccc(-c2ccccc2S(=O)(=O)NC#N)cc1)C(=O)CCCCc1ccccc1 [Example 247], the “Residual activity % of the NCBE at 10 μM” value was 74.6%. N#CNS(=O)(=O)c1ccccc1-c1ccc(CN(CCO)C(=O)CCC2CCCCC2)cc1 [Example 8] was tested, and the “Residual activity % of the NCBE at 10 μM” value was 86.7%. In the case of COc1ccc(CN(Cc2ccc(-c3ccccc3S(=O)(=O)NC#N)cc2)C(=O)c2ccc(C)cc2)cc1 [Example 70], the “Residual activity % of the NCBE at 10 μM” value is reported as 94.7%. For N#CNS(=O)(=O)c1ccccc1-c1ccc(CN(Cc2cccs2)C(=O)CCCCc2ccccc2)cc1 [Example 253], the “Residual activity % of the NCBE at 10 μM” value was 35.3%. With N#CNS(=O)(=O)c1ccccc1-c1ccc(CN(Cc2ccc(F)cc2)C(=O)Cc2ccc(Cl)cc2)cc1 [Example 157] the “Residual activity % of the NCBE at 10 μM” value was 24.9%. With N#CNS(=O)(=O)c1ccccc1-c1ccc(CN(Cc2ccccc2Cl)C(=O)C(C(=O)Cc2ccccc2)c2ccccc2)cc1 (centres unmarked) [Example 131] the “Residual activity % of the NCBE at 10 μM” value was 97.6%. COc1ccccc1C(=O)N(Cc1ccc(-c2ccccc2S(=O)(=O)NC#N)cc1)Cc1cccc(-c2ccccc2)c1 [Example 337] was tested, and the “Residual activity % of the NCBE at 10 μM” value was 51.2%. In the case of CC(C)NC(=O)N(Cc1ccc(-c2ccccc2S(=O)(=O)NC#N)cc1)Cc1cccc(Cl)c1 [Example 306], the “Residual activity % of the NCBE at 10 μM” value is reported as 90.2%. For N#CNS(=O)(=O)c1ccccc1-c1ccc(CN(Cc2cccc3ccccc23)C(=O)CCc2cccs2)cc1 [Example 289], the “Residual activity % of the NCBE at 10 μM” value was 39.2%. With N#CNS(=O)(=O)c1ccccc1-c1ccc(CN(Cc2ccccc2Cl)C(=O)Cc2cccs2)cc1 [Example 143] the “Residual activity % of the NCBE at 10 μM” value was 35.7%. With N#CNS(=O)(=O)c1ccccc1-c1ccc(CN(Cc2ccc(C(F)(F)F)cc2)C(=O)Cc2cccs2)cc1 [Example 235] the “Residual activity % of the NCBE at 10 μM” value was 67.1%. N#CNS(=O)(=O)c1ccccc1-c1ccc(CN(Cc2ccc(Cl)cc2Cl)C(=O)Cc2ccc(O)cc2)cc1 [Example 283] was tested, and the “Residual activity % of the NCBE at 10 μM” value was 80.0%. With N#CNS(=O)(=O)c1ccccc1-c1ccc(CN(Cc2ccc(Cl)cc2)C(=O)C2CCCCC2)cc1 [Example 16] the “Residual activity % of the NCBE at 10 μM” value was 56.4%. N#CNS(=O)(=O)c1ccccc1-c1ccc(CN(CCOc2ccccc2)C(=O)Cc2cccs2)cc1 [Example 142] was tested, and the “Residual activity % of the NCBE at 10 μM” value was 27.1%. In the case of C=CCOC(=O)N(CCO)Cc1ccc(-c2ccccc2S(=O)(=O)NC#N)cc1 [Example 44], the “Residual activity % of the NCBE at 10 μM” value is reported as 82.6%. In the case of N#CNS(=O)(=O)c1ccccc1-c1ccc(CN(Cc2ccccc2)C(=O)c2ccccc2Cl)cc1 [Example 55], the “Residual activity % of the NCBE at 10 μM” value is reported as 29.3%. In the case of N#CNS(=O)(=O)c1ccccc1-c1ccc(CN(Cc2ccncc2)C(=O)Cc2cccs2)cc1 [Example 146], the “Residual activity % of the NCBE at 10 μM” value is reported as 69.8%. For CC(C)=CCCC(C)=CCN(Cc1ccc(-c2ccccc2S(=O)(=O)NC#N)cc1)C(=O)Cc1cccs1 [Example 313], the “Residual activity % of the NCBE at 10 μM” value was 17.2%. In the case of COc1ccccc1C(=O)N(Cc1ccc(-c2ccccc2S(=O)(=O)NC#N)cc1)CC1CCCO1 (centres unmarked) [Example 338], the “Residual activity % of the NCBE at 10 μM” value is reported as 50.7%. N#CNS(=O)(=O)c1ccccc1-c1ccc(CN(Cc2cccc(Cl)c2Cl)C(=O)Cc2cccs2)cc1 [Example 309] was tested, and the “Residual activity % of the NCBE at 10 μM” value was 88.9%. For N#CNS(=O)(=O)c1ccccc1-c1ccc(CN(C(=O)CCCCc2cccs2)C2CC2)cc1 [Example 221], the “Residual activity % of the NCBE at 10 μM” value was 72.3%. In the case of COc1cccc(CN(Cc2ccc(-c3ccccc3S(=O)(=O)NC#N)cc2)C(=O)c2cccs2)c1 [Example 86], the “Residual activity % of the NCBE at 10 μM” value is reported as 57.0%. For N#CNS(=O)(=O)c1ccccc1-c1ccc(CN(CCCc2ccccc2)C(=O)Cc2ccsc2)cc1 [Example 226], the “Residual activity % of the NCBE at 10 μM” value was 34.8%. In the case of N#CNS(=O)(=O)c1ccccc1-c1ccc(CN(CCCc2ccccc2)C(=O)C(=O)c2cccs2)cc1 [Example 194], the “Residual activity % of the NCBE at 10 μM” value is reported as 61.1%. COc1cccc(CN(Cc2ccc(-c3ccccc3S(=O)(=O)NC#N)cc2)C(=O)c2cc3ccccc3s2)c1 [Example 76] was tested, and the “Residual activity % of the NCBE at 10 μM” value was 87.3%. For N#CNS(=O)(=O)c1ccccc1-c1ccc(CN(C(=O)Cc2c[nH]c3ccccc23)C2CC2)cc1 [Example 205], the “Residual activity % of the NCBE at 10 μM” value was 41.7%. N#CNS(=O)(=O)c1ccccc1-c1ccc(CN(Cc2cccc3ccccc23)C(=O)Cc2cccs2)cc1 [Example 271] was tested, and the “Residual activity % of the NCBE at 10 μM” value was 15.9%. For N#CNS(=O)(=O)c1ccccc1-c1ccc(CN(Cc2ccc(Cl)c(Cl)c2)C(=O)Cc2cccs2)cc1 [Example 259], the “Residual activity % of the NCBE at 10 μM” value was 40.1%. With CN(Cc1ccc(-c2ccccc2S(=O)(=O)NC#N)cc1)C(=O)Cc1c[nH]c2ccccc12 [Example 206] the “Residual activity % of the NCBE at 10 μM” value was 23.8%. For COc1ccccc1CN(Cc1ccc(-c2ccccc2S(=O)(=O)NC#N)cc1)C(=O)c1ccccc1F [Example 94], the “Residual activity % of the NCBE at 10 μM” value was 87.7%. COCCN(Cc1ccc(-c2ccccc2S(=O)(=O)NC#N)cc1)C(=O)Cc1c[nH]c2ccccc12 [Example 203] was tested, and the “Residual activity % of the NCBE at 10 μM” value was 30.3%. With Cc1ccc(CN(Cc2ccc(-c3ccccc3S(=O)(=O)NC#N)cc2)C(=O)C(c2ccccc2)c2ccccc2)cc1 [Example 115] the “Residual activity % of the NCBE at 10 μM” value was 84.0%. In the case of N#CNS(=O)(=O)c1ccccc1-c1ccc(CN(CCc2ccc(S(N)(=O)=O)cc2)C(=O)Cc2cccs2)cc1 [Example 272], the “Residual activity % of the NCBE at 10 μM” value is reported as 65.0%. N#CNS(=O)(=O)c1ccccc1-c1ccc(CN(Cc2cccc(-c3ccccc3)c2)C(=O)CC2CCCCC2)cc1 [Example 357] was tested, and the “Residual activity % of the NCBE at 10 μM” value was 61.9%. With N#CNS(=O)(=O)c1ccccc1-c1ccc(CN(CC2CCCO2)C(=O)CCOc2ccccc2)cc1 (centres unmarked) [Example 348] the “Residual activity % of the NCBE at 10 μM” value was 46.3%. For CCN(Cc1ccc(-c2ccccc2S(=O)(=O)NC#N)cc1)C(=O)Cc1ccsc1 [Example 231], the “Residual activity % of the NCBE at 10 μM” value was 57.8%. With COc1cc(C(=O)N(Cc2ccccc2)Cc2ccc(-c3ccccc3S(=O)(=O)NC#N)cc2)cc(OC)c1OC [Example 49] the “Residual activity % of the NCBE at 10 μM” value was 75.8%. For N#CNS(=O)(=O)c1ccccc1-c1ccc(CN(CCO)C(=O)c2ccccc2Cl)cc1 [Example 56], the “Residual activity % of the NCBE at 10 μM” value was 69.0%. For C#CCN(Cc1ccc(-c2ccccc2S(=O)(=O)NC#N)cc1)C(=O)C(NC(=O)OCc1ccccc1)c1ccccc1 (centres unmarked) [Example 246], the “Residual activity % of the NCBE at 10 μM” value was 65.0%. With N#CNS(=O)(=O)c1ccccc1-c1ccc(CN(Cc2ccccc2F)C(=O)CCOc2ccccc2)cc1 [Example 346] the “Residual activity % of the NCBE at 10 μM” value was 36.0%. COCCN(Cc1ccc(-c2ccccc2S(=O)(=O)NC#N)cc1)C(=O)Cc1cccs1 [Example 237] was tested, and the “Residual activity % of the NCBE at 10 μM” value was 50.3%. N#CNS(=O)(=O)c1ccccc1-c1ccc(CN(Cc2ccccc2)C(=O)c2ccccc2F)cc1 [Example 37] was tested, and the “Residual activity % of the NCBE at 10 μM” value was 52.0%. With CC(C)=CCCC(C)=CCN(Cc1ccc(-c2ccccc2S(=O)(=O)NC#N)cc1)C(=O)CCOc1ccccc1 [Example 343] the “Residual activity % of the NCBE at 10 μM” value was 48.1%. In the case of N#CNS(=O)(=O)c1ccccc1-c1ccc(CN(C(=O)Cc2cccs2)C2CCCc3ccccc32)cc1 (centres unmarked) [Example 315], the “Residual activity % of the NCBE at 10 μM” value is reported as 23.5%. N#CNS(=O)(=O)c1ccccc1-c1ccc(CN(Cc2ccco2)C(=O)Cc2ccc(Cl)cc2)cc1 [Example 148] was tested, and the “Residual activity % of the NCBE at 10 μM” value was 45.6%. For N#CNS(=O)(=O)c1ccccc1-c1ccc(CN(CCO)C(=O)c2ccccc2F)cc1 [Example 38], the “Residual activity % of the NCBE at 10 μM” value was 66.7%. N#CNS(=O)(=O)c1ccccc1-c1ccc(CN(Cc2ccccc2)C(=O)NC2CCCCC2)cc1 [Example 300] was tested, and the “Residual activity % of the NCBE at 10 μM” value was 29.4%. N#CNS(=O)(=O)c1ccccc1-c1ccc(CN(CC2CC2)C(=O)Cc2ccc(Cl)cc2)cc1 [Example 153] was tested, and the “Residual activity % of the NCBE at 10 μM” value was 46.1%. For N#CNS(=O)(=O)c1ccccc1-c1ccc(CN(Cc2ccccc2Cl)C(=O)C(c2ccccc2)c2ccccc2)cc1 [Example 111], the “Residual activity % of the NCBE at 10 μM” value was 80.5%. With N#CNS(=O)(=O)c1ccccc1-c1ccc(CN(Cc2cccc(Cl)c2)C(=O)NC2CCCCC2)cc1 [Example 308] the “Residual activity % of the NCBE at 10 μM” value was 32.1%.

Same assay, conditions: compound at 10 μM; R(3) to R(7) hydrogen series
With CCC(CC)(CN(Cc1ccc(-c2ccccc2S(=O)(=O)NC#N)cc1)C(=O)Cc1cccs1)c1ccc(OC)cc1 [Example 395] the “Residual activity % of the NCBE at 10 μM” value was 50.9%.

Same assay, conditions: compound at 10 μM; sub-table with R7 substituent
Cc1ccc(-c2ccc(CN(Cc3cccs3)C(=O)Cc3cccs3)cc2)c(S(=O)(=O)NC#N)c1 [Example 517] was tested, and the “Residual activity % of the NCBE at 10 μM” value was 86.2%. In the case of Cc1ccc(-c2ccc(CN(CCc3ccccc3)C(=O)Cc3ccsc3)cc2)c(S(=O)(=O)NC#N)c1 [Example 542], the “Residual activity % of the NCBE at 10 μM” value is reported as 67.4%. Cc1ccc(-c2ccc(CN(Cc3cccs3)C(=O)Cc3ccc(Cl)cc3)cc2)c(S(=O)(=O)NC#N)c1 [Example 533] was tested, and the “Residual activity % of the NCBE at 10 μM” value was 75.5%. In the case of Cc1ccc(-c2ccc(CN(Cc3ccccc3)C(=O)Cc3cccs3)cc2)c(S(=O)(=O)NC#N)c1 [Example 513], the “Residual activity % of the NCBE at 10 μM” value is reported as 88.6%. Cc1ccc(-c2ccc(CN(Cc3ccccc3Cl)C(=O)Cc3ccc(Cl)cc3)cc2)c(S(=O)(=O)NC#N)c1 [Example 532] was tested, and the “Residual activity % of the NCBE at 10 μM” value was 71.0%. Cc1ccc(-c2ccc(CN(Cc3cccc(Cl)c3Cl)C(=O)CC3CCCCC3)cc2)c(S(=O)(=O)NC#N)c1 [Example 552] was tested, and the “Residual activity % of the NCBE at 10 μM” value was 61.5%. Cc1ccc(-c2ccc(CN(Cc3ccccc3F)C(=O)Cc3ccsc3)cc2)c(S(=O)(=O)NC#N)c1 [Example 543] was tested, and the “Residual activity % of the NCBE at 10 μM” value was 55.3%.

From patent US6369069B1 (Aventis Pharma Deutschland GmbH, priority 1998, dated 2002)
